Measured values published in publication PMC12030059, “Mechanistic Advances in the Therapeutic Application of Bixin for Lung Inflammation In Vitro and In Vivo” (Pharmaceuticals, 2025).
≈ marks a conversion by molar mass, not a printed value.

Legend:
[1] = target: Nrf2/ARE axis; test: Luciferase ARE reporter assay; assay type: cell-based; settings: RAW 264.7 transfected with ARE luciferase reporter, 0–200 μM; read-out: EC50 in activating the Nrf2/ARE axis
Description: RAW 264.7 cells (3.5 × 10^5 cells/well) were seeded into 24-well plates in FBS-free DMEM. Next day, cells were transfected with the ARE-responsive luciferase reporter kit (#60514, BPS Bioscience, San Diego, CA, USA) in Opti-MEM containing Lipofectamine 2000 and incubated for 24 h. After stimulation with different concentrations of potassium bixinate (0–200 μM), the luciferase-containing medium was collected and incubated with luciferin substrate (Dual Luciferase Assay System) (#60683-1, BPS Bioscience, San Diego, CA, USA) according to the manufacturer’s instructions. Luminescence emitted by luciferin cleavage was measured using the Varioskan LUX plate reader (ThermoFisher Scientific, Waltham, MA, USA).

[2] = Kinetic solubility assay; assay type: physicochemical; settings: aqueous buffer, kinetic from dmso stock, 37 °C
Description: These solutions were incubated in a shaking water bath at 37 °C for 4 and 24 h. Immediately after each incubation period, the samples were centrifuged at 21,000× g Universal Centrifuge 320R Hettich (Tuttlingen, Germany) at 22 °C. The supernatant was collected, filtered through a 0.44 μm Millipore filter (Sigma-Aldrich—Saint Louis, MO, USA) into a vial, and analyzed using a HPLC LC-20AD Shimadzu (Kyoto, Japan) coupled with a DAD detector set at 457 nm. The mobile phase consisted of acetonitrile and methanol (85:15 v/v) using a 100-5C18 Kromasil (Bohus, Sweden) analytical column (4.6 mm × 250 mm, 5 μm) as the stationary phase in isocratic mode at 22 °C with a flow rate of 1 mL/min. A calibration curve was prepared using bixin in acetonitrile at concentrations ranging from 0 to 200 μM and analyzed under the same HPLC conditions. LogS was calculated as the base-10 logarithm of the solubility (in μM) for each time point.

solubility at 4 h ([2]; PBS buffer, pH 7.4, 4 h)	solubility at 24 h ([2]; PBS buffer, pH 7.4, 24 h)	solubility at 4 h ([2]; buffered solution pH 2.0 (commercial), pH 2.0, 4 h)	solubility at 24 h ([2]; buffered solution pH 2.0 (commercial), pH 2.0, 24 h)	solubility at 4 h ([2]; potassium-phosphate-buffered saline solution (KPE) buffer, pH 6.6, 4 h)	solubility at 24 h ([2]; potassium-phosphate-buffered saline solution (KPE) buffer, pH 6.6, 24 h)	Molecule	EC50 [1]
						potassium bixinate [KBx]	46 µM
64 µM (≈ 25.2 µg/mL)	43 µM (≈ 17 µg/mL)	< 1 µM	< 1 µM	30 µM (≈ 11.8 µg/mL)	11 µM (≈ 4.34 µg/mL)	COC(=O)/C=C/C(C)=C\C=C\C(C)=C\C=C\C=C(C)\C=C\C=C(C)\C=C\C(=O)O [HBx, (2E,4E,6E,8E,10E,12E,14E,16Z,18E)-20-methoxy-4,8,13,17-tetramethyl-20-oxoicosa-2,4,6,8,10,12,14,16,18-nonaenoic acid]	
